Columns and labels:
VEGF = VEGF production by HUVEC, ELISA of culture supernatants; assay type: cell-based, human
Description: (§1) Cell lines used: non-neoplastic cells derived from human umbilical cord endothelial (HUVEC) and neoplastic cells of melanoma, B16F10 murine tumor. The HUVECs were provided by Dra. Dulcinea Saes Parra Abdalla, Department of Clinical and Toxicological Analyses, FCF-USP's and B16F10 murine melanoma cells, by Prof. Marcia Cominetti Department of Physiology and Molecular Biology of UFSCar. Both strains were grown in RPMI with 10% fetal calf serum. […] The preliminary investigation of the effect on angiogenesis was also made in vitro with HUVEC. The measures were undertaken to study the cell cycle by flow cytometry (propidium iodide and acridine orange) the assessment of mitochondrial activity by confocal microscopy (Mitotracker Red), and measurement of VEGF and PGE2 production by HUVEC, we performed cell culture supernatants by ELISA with commercial antibodies.

PGE2 = PGE2 production by HUVEC, ELISA of culture supernatants; assay type: cell-based, human; conditions: 1×10^4 cells/mL and 2×10^5 cells/mL plating
Description: as §1

HUVEC [1] = assay: Cell cycle by flow cytometry (propidium iodide, acridine orange) in HUVEC; assay type: cell-based, human
Description: FIG. 13: Effect of MDJ on the cell cycle in HUVEC after 18 h of exposure in vitro. The concentrations used in each test are shown in graphics measures cell cycle were performed on a BD FACScalibur equipment, after labeling with propidium iodide simple. The staining with acridine orange served as a control of the process of apoptosis.
as §1

[2] = Toxicity observations in the MNNG colon tumor study (histopathology, hematology, clinical chemistry); conditions: mouse, in vivo, ip
Description: (§2) Briefly, Balb/c mice were treated by intrarectal instillations of the carcinogen N-methyl-N′-nitro-N-nitrosoguanidine (MNNG), twice a week for 2 weeks (XX), and were sacrificed 24 weeks after the beginning of the treatment. Ten days before the end of the experiment, the animals of group A (n=10) were treated with daily i.p. injections of cyclodextrin-carried MDJ (10 μL of saline solution with 1 millimolar MDJ) for every 60 grams of body weight. The animals of group B (n=10) were treated by daily intrarectal instillations of cyclodextrin-carried MDJ, at the same dosage. The group C (n=10) was treated with MNNG and with daily i.p. injections of MDJ (diluted at 10% in 100 μL of saline). The animals of the group D were treated with MNNG and by daily intrarectal instillations of MDJ, at the same dosage. The control group E was treated with MNNG alone. The control groups F and G were treated with saline and cyclodextrin-carried MDJ, i.p. and i.r, respectively. The control groups H and I received saline and MDJ, i.p. and i.r, respectively. The dosages of cyclodextrin-carried MDJ and MDJ were based on previous animal pilot studies.
Colon tumor (T), adjacent non-tumor site (NT), macroscopically normal colonic mucosa from non-tumor rats (N) in the same treatment group were obtained. […] Standard hematology and clinical chemistry parameters were also monitored.

[3] = Degradation in vivo (applicant's unpublished studies)
HUVEC [4] = assay: MTT cytotoxicity and growth curves in endothelial cells; assay type: cell-based, human
[5] = system: B16F10 murine melanoma cells; assay: MTT cytotoxicity and growth curves in murine melanoma cells; assay type: cell-based; conditions: cultures of murine melanoma
CAM blood vessels = conditions: in vivo
Description: For the tests with eggs, egg whites were used Gallus gallus incubated in a thermostated incubator at controlled temperature and humidity. The incubation was performed with and without eggs lying giragem. A mark on the upper surface of the bark was used to control this procedure. The eggs were opened on the fourth day of incubation, after careful cleaning of the skin with cotton wool soaked in 70% alcohol. The opening was performed in laminar flow, keeping all your eggs in the same position in which they were hatched, supported on a plastic holder and marked on the upper surface. The experimental procedure was adapted and refined for the project, drawing on the first half of the twentieth century. The description of the method developed
After the opening and closing of windows all eggs were replaced in the incubator, with the same initial conditions and maintained for a further seven days, typically. […]
After brief fixation, the hull was breached and the embryo inert placed on a petri dish. […] In each trial, the image was captured from the fund, kept the lighting and color adjustments in order to standardize the images of the analyzed material. […]
Each region of the same sample was imaged in bright field and dark field, for better observation of details. The growth of the vascular network was analyzed with the program Image J by processing the images in bright field binary images. […]

HUVEC [6] = assay: Mitochondrial activity of endothelial cells, Mitotracker Red confocal microscopy; assay type: cell-based, human; conditions: low-density plating
Description: FIGS. 15A-15F each show effect of MDJ on the mitochondrial activity of endothelial cells after 4 h of exposure in low-density plating on glass coverslips 25 mm in 24-well plates, as measured by Mitotracker red fluorescence confocal microscopy, increased 80× (40×+2× digital zoom). The calibration parameters were maintained for all measures. […] Concentrations equal to or greater than 1 mM lead to a decrease in the intensity/area of marking.
FIG. 16: Effect of MDJ on the mitochondrial activity of endothelial cells after 24 hours exposure in low-density plating on glass coverslips 25 mm in 24-well plates, as measured by Mitotracker Red fluorescence in confocal microscope, 40× magnification. The calibration parameters were maintained for all measurements, each point is the average of six independent measurements.
Cell lines used: non-neoplastic cells derived from human umbilical cord endothelial (HUVEC) and neoplastic cells of melanoma, B16F10 murine tumor. The HUVECs were provided by Dra. Dulcinea Saes Parra Abdalla, Department of Clinical and Toxicological Analyses, FCF-USP's and B16F10 murine melanoma cells, by Prof. Marcia Cominetti Department of Physiology and Molecular Biology of UFSCar. Both strains were grown in RPMI with 10% fetal calf serum. […] The preliminary investigation of the effect on angiogenesis was also made in vitro with HUVEC. […]

B16F10 murine melanoma = assay: CAM model inoculated with B16F10 murine melanoma; assay type: in vivo
Description: After the opening and closing of windows all eggs were replaced in the incubator, with the same initial conditions and maintained for a further seven days, typically. In this interval procedures were carried out for tests of angiogenesis or for research on tumor growth in vivo. The observation of angiogenesis in eggs inoculated with tumor cells followed virtually the same test model of angiogenesis. Exposure to pure MDJ (cis/trans 96% pure from Sigma) or cyclodextrin-carried MDJ made in Example 3 above was performed on day 8, with the remaining eggs in the incubator until day 14. The inoculation with the melanoma cells was performed on day 4, eggs received MDJ pure or cyclodextrin-carried MDJ on the 8th day and remained incubated up to 14 days. During the development of the protocol, the time of inoculation and treatment were adjusted. Care during the collection and to obtain the images were standardized for all experiments.
The typical inoculum was 2×10^4 cells per egg, in a volume of culture medium less than […]. Melamona growth was accompanied by visual inspection of pigmented mass formation on the CAM, the magnifying glass and microscope. […]
Eggs used were measured by sampling and the average volume of 60 mL was maintained throughout the period of testing with a standard deviation below 10%. […] The tests of viability were monitored for up to 10 days. […]

[7] = system: chemically induced colon tumors; assay: Chemically (MNNG) induced colon tumors in mice: tumor size, PCNA, apoptotic index, CASPASE-3; assay type: in vivo, Balb/c mice
Description: The effect of cyclodextrin-carried MDJ made in Example 3 above was studied in an experimental model of colonic cancer in mice. Apoptosis and cell proliferation, the two most important events related to tumor growth were investigated. The apoptosis and proliferation indexes of colon tumor, adjacent non-cancer tissues and normal colonic tissues were determined. Apoptosis was quantified by apoptotic nuclei counting and CASPASE-3 immunostaining, whereas proliferation was determined by PCNA immunostaining.
The animals were maintained in agreement with the guidelines of Committee on Care and Uses of Laboratory Animals of the National Research Council of the National Institutes of Health (USA). The mice were fed with food and water ad libitum and maintained on hardwood bedding under a 12-h light/dark cycle. Animals were weighed weekly during the experiments. All experiments were approved by the USP Animal Ethics Committee.
as §2
Colon tumor (T), adjacent non-tumor site (NT), macroscopically normal colonic mucosa from non-tumor […] (N) in the same treatment group were obtained. Immunohistochemistry was performed to study cell proliferation by the Proliferating cellular antigen (PCNA) staining and to analyze cell apoptosis by both the apoptotic bodies counting and by the CASPASE-3 staining. Results were expressed and PCNA labeling index (PCNA-Li), Apoptotic Index (AI) and CASPASE-3 Labeling Index (CASPASE-3-Li). Standard hematology and clinical chemistry parameters were also monitored.
Apoptosis was determined by apoptotic nuclei counting. Sections were stained with hematoxylin and eosin to evaluate the number of apoptotic cells per section. The criteria used to recognize apoptotic cells were: shrunk size, loss of contact with surrounding tissues (at times forming the classically described halo) and nuclear condensation as previously described (Yu et al., Gut 2002, 51:480-484). At least 1 000 cells were counted in five random fields and the percentage of cells with apoptotic features was then calculated (apoptotic index or AI). The apoptotic nuclei counts were compared with findings obtained by CASPASE-3 immunostaining in 30 randomly selected areas. A strong correlation between apoptotic nuclei count and CASPASE-3 results was found (r=0.83, P<0.001).
Proliferation was assayed by immunoperoxidase staining for Proliferating Cell Nuclear Antigen (PCNA) as described previously. Briefly, paraffin-embedded sections from each specimen were labeled with PCNA antibody, after microwave antigen retrieval in citrate buffer. Negative controls were run by replacing the primary antibody with non-immune serum. The slides were developed in 3,3-diaminobenzidine tetrahydrochloride (DAB, Dako, Denmark) and counter-stained with Mayer haematoxylin. […]

CCCCCC1C(=O)CCC1CC(=O)OC (centres unmarked) [MDJ, methyl 2-(3-oxo-2-pentylcyclopentyl)acetate]
VEGF, pg/mL (2 × 10^6 cells, 4 h) (VEGF; MDJ 1 nM): 566 ± 31 pg/mL
VEGF, pg/mL (2 × 10^6 cells, 4 h) (VEGF; MDJ 10 uM): 319 ± 12 pg/mL
VEGF, pg/mL (2 × 10^6 cells, 4 h) (VEGF; MDJ 100 uM): 450 ± 30 pg/mL
PGE2 production by HUVEC (PGE2): no increase in PGE2 production
Distribution according to the phases of the cell cycle,% (18 h): Dead cells (HUVEC [1]; MDJ 1 nM): 13%
Distribution according to the phases of the cell cycle,% (18 h): G0/G1 (HUVEC [1]; MDJ 1 nM): 72%
Distribution according to the phases of the cell cycle,% (18 h): G2/S (HUVEC [1]; MDJ 1 nM): 15%
Marking with Acridine Orange,% (18 h) (HUVEC [1]; MDJ 1 nM): 6.2 ± 0.1%
Distribution according to the phases of the cell cycle,% (18 h): Dead cells (HUVEC [1]; MDJ 10 nM): 93%
Distribution according to the phases of the cell cycle,% (18 h): G0/G1 (HUVEC [1]; MDJ 10 nM): 5%
Distribution according to the phases of the cell cycle,% (18 h): G2/S (HUVEC [1]; MDJ 10 nM): 2%
Marking with Acridine Orange,% (18 h) (HUVEC [1]; MDJ 1 uM): 12 ± 0.9%
Distribution according to the phases of the cell cycle,% (18 h): Dead cells (HUVEC [1]; MDJ 10 uM): 7%
Distribution according to the phases of the cell cycle,% (18 h): G0/G1 (HUVEC [1]; MDJ 10 uM): 60%
Distribution according to the phases of the cell cycle,% (18 h): G2/S (HUVEC [1]; MDJ 10 uM): 33%
Marking with Acridine Orange,% (18 h) (HUVEC [1]; MDJ 10 uM): 9.0 ± 0.5%
Distribution according to the phases of the cell cycle,% (18 h): Dead cells (HUVEC [1]; MDJ 100 uM): 8%
Distribution according to the phases of the cell cycle,% (18 h): G0/G1 (HUVEC [1]; MDJ 100 uM): 56%
Distribution according to the phases of the cell cycle,% (18 h): G2/S (HUVEC [1]; MDJ 100 uM): 36%
Marking with Acridine Orange,% (18 h) (HUVEC [1]; MDJ 100 uM): 6.7 ± 0.3%
tolerability of i.p. injections (groups C and H discharged) [2]: early signs or peritonitis
degradation in vivo [3]: degraded very quickly in vivo
folding time (growth curves) (HUVEC [4]; HUVEC, at concentrations below 1 mM): about 20 h
concentrations at which MTT dye reduction (mitochondrial activity) was maintained at a constant value (HUVEC [4]; confluent HUVEC): less than 1 mM
toxicity (MTT, growth curves) compared with HUVEC [5]: toxic concentrations were very close
tolerability in fertilized eggs (CAM blood vessels): well tolerated by the eggs
concentrations leading to a decrease in the intensity/area of Mitotracker red marking (HUVEC [6]): ≥ 1 mM
melanoma bodies on CAM (B16F10 murine melanoma; CAM model): dose-dependent involution
survival of eggs inoculated with melanoma cells (B16F10 murine melanoma; eggs with B16F10): partially recovered this survival
cell proliferation and apoptosis in normal colonic mucosa and mucosa adjacent to tumors ([7]; MNNG-treated and non-MNNG animals): not associated to any significant changes in cell proliferation and apoptosis
Apoptotic Index (Tumor) ([7]; MNNG-treated mice, daily i.r.): 0.29 ± 0.04
Caspase-3-Li (tumor) ([7]; MNNG-treated mice, daily i.r.): 0.39 ± 0.11
Tumor Size ([7]; MNNG-treated mice, daily i.r. instillation): 0.56 mm^2
PCNA-Li ([7]; colonic tumors, MNNG-treated mice, daily i.r.): 0.41 ± 0.06
effect on tumor markers ([7]; i.r. administration): mild, but significant reduction in the above tumor markers

— US9592305B2, “Compositions of jasmonate compounds and methods of use” (Nanocare Technologies, Inc., priority 2011, dated 2017)
